According to patent US20250302913A1, “LACRIPEP PROMOTES NEUROREGENERATION AND MAINTAINS EPITHELIAL PROGENITOR CELL IDENTITY” (The Regents of The University of California, priority 2022, published 2025):

Tests used:
[1] = system: Aire KO corneas; experiment: RNAseq of corneas at day 7 of treatment; type: in vivo, mouse
Excerpt: To identify potential downstream targets of lacripep treatment, we elucidated changes in corneal gene expression and signaling pathways at the day 7 time point through RNAseq. Principal component analysis (PCA) identified major transcriptional differences between each treatment group (FIG. 6A). […] Subsequent analysis yielded enriched gene sets that were highly associated with neuronal gene ontology (GO) terms e.g., synapse (P=3.6E-47), visual perception (P=5.8E-49), neuron projection (P=2.1E-29), and response to stimulus (P=1.8E-19) (FIG. 4C). These included cohorts of genes expressed by nerves and/or corneal epithelial cells involved in axonogenesis and axon guidance e.g., Neurod2, Cntn4, ephrins (Epha5, Epha7, Epha8) and semaphorins (Sema6a, Sema7a); synapse formation and function e.g., synaptic vesicle membrane proteins (Syt1; synaptophysin-Syp) and synaptic vesicle exocytosis regulators (Rims1, Rims2); neuronal signaling e.g., GABA receptors (Gabra2, Gabrr1), glutamate receptors (Gria2, Gria4), and G protein signal-transducing mediators (Gnb3, Gng4); and neurotransmitter transport e.g. glutamate transporters (Slc17a7) and GABA transporters (Slc6a1, Slc32a1) (FIG. 4D). Analysis of corneas treated with lacripep or PBS versus untreated corneas further emphasized the ability of lacripep and not PBS alone to induce transcription of neuronal gene sets (FIG. 6B).
Total RNA was collected at 7 days of treatment and purified using RNAaqueous and DNase reagents according to the manufacturer's instructions (Ambion, Houston, TX, USA). RNA quality was assessed using the Agilent 2100 BioAnalyzer, and samples with an RNA integrity ≥6.0 were included for RNA sequencing. The synthesis of mRNA libraries was performed by Novogene Corporation Inc. according to their protocols. RNA library was formed by ploy A capture (or rRNA removal), RNA fragmentation by covaris or enzyme digestion and reverse transcription of cDNA. Sequencing was performed as described below.
RNA libraries were sequenced on an Illumina NovaSeq 6000. Depths of 20-30 million 150 bp paired-end reads were generated for each sample. Quality control metrics were performed on raw sequencing reads using the FASTQC v0.11.9 application (76). Reads were mapped to the UCSC Mus musculus genome mm 10 (NCBI build v38) using Spliced Transcripts Alignment to a Reference (STAR) (77). At least 90% of the reads were successfully mapped. Reads aligning to the mm 10 build were quantified against Ensembl Transcripts release 93 using Partek® E/M (Partek's optimization of the expectation maximization algorithm, Partek Inc, St. Louis, MO, USA), which disregarded any reads that aligned to more than one location or more than one gene at a single location. […]

[2] = system: Rest, Isl1, Rreb1 regulons; experiment: iRegulon transcription factor-gene target regulatory network analysis; set-up: species or system mouse; settings: day 7; lacripep vs PBS; NES>3
Excerpt: To identify candidate transcription factors that regulate these gene sets, we performed transcription factor (TF)-gene target regulatory network analysis using iRegulon (37). iRegulon identifies transcription factor-binding motifs that are enriched in the genomic regions of a query gene set and predicts transcription factors that bind to them. […] ISL1 plays an essential role in the generation of sensory and sympathetic neurons (38 39), REST is a master regulator of neurogenesis that plays a role in modulating synaptic plasticity (40-42) and RREB1 regulates axon injury (43). […] The Isl1 exclusive gene set was also extensively enriched in genes involved with functional and structural nerve-mediated processes including visual perception (P=3.5E-27, e.g., Capb4, Vsx1), response to stimulus (P=9.7E-19; e.g., Slc17a7, Ush2a), synapse (P=9.4E-8, e.g. Magi2, Synpr) and neuron projection (P=6.4E-6, e.g., Cdh23, Kif1a) (FIG. 4F).
To identify regulatory networks underlying the impact of lacripep on tissue regeneration, we used the cytoscape application iRegulon (37) to predict master regulators, i.e., transcription factors whose regulons (transcriptional target sets) are highly enriched with the input gene list.

[3] = biological target: T1, syndecan-1 (SDC1) (Homo sapiens, UniProt P18827); settings: cited from earlier work
T1 sequence (P18827 23-310): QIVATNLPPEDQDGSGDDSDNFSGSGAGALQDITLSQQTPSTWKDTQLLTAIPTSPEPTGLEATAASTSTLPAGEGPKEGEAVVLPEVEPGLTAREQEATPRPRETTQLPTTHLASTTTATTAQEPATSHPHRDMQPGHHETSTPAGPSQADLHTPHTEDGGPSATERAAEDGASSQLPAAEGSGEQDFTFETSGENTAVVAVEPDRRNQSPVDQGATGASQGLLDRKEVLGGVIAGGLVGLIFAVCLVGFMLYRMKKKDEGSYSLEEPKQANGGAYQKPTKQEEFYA

[4] = lacripep- versus PBS-treated corneas, Padj<0.05, 2-fold change cutoff

Ac-KQFIENGSEFAQKLLKKFSLLKPWA-NH2 [lacripep, amino terminus acetylated, carboxyl terminus aminated]
expression of inflammatory mediators (IL1b, interferon response genes) ([1]; across diseased corneas): expressed at similar levels in all diseased corneas
expression of T cell markers, T cell response genes and macrophage markers ([1]; compared to WT controls): remained significantly elevated
genes downregulated [1, 4]: 15 genes
genes significantly upregulated [1, 4]: 818 genes
upregulated target genes of Isl1 regulon [2]: 394 genes
upregulated target genes of Rest regulon [2]: 184 genes
upregulated target genes of Rreb1 regulon [2]: 254 genes
binding and activation of syndecan-1 [3]: bind and activate
